“Also recorded” adds a separate entry of the source.

The source of these data is patent US11484511B2, “Pharmaceutical composition comprising THA as effective ingredient for treatment of prostate cancer” (KOREA UNITED PHARM. INC., priority 2018, dated 2022).

What all share (format): cell-based
The subject of experiment [1] is PC3 cells. As to the kind of experiment: Real-time cell proliferation analysis (INCUCYTE ZOOM). Particulars: THA 3, 10, 30 μM, BI2536 1-100 nM, PPG 3-100 μM, 68 hours. The method, then: (§1) LnCaP cells, PC3 cells which are androgen receptor (AR)-negative cells, and C4-2 cells showing castration resistance were cultured using an RPMI-1640 medium (Hyclone, Logan, Utah, USA) containing 10% fetal bovine serum (FBS) (Hyclone, Logan, Utah, USA) and 1% penicillin/streptomycin.
(§2) In order to measure cell proliferation, cells were plated onto a 96-well dish (5×10^3 cells/well). After treatment with a drug, the number of live cells was measured at 4-hour intervals using an INCUCYTE™ ZOOM Live Cell Analysis System (Essen Bioscience, Ann Arbor, Mich., USA).
(§3) In order to comparatively observe the cell proliferation inhibitory effects after treatment of prostate cancer cells with THA, a 1 M solution was prepared by diluting 0.168 g of THA (molecular weight: 168.15) with 1 ml DMSO. After the prostate cancer cell lines (LnCaP, PC3, and C4-2) cultured by the method in Example 1-2 were treated with THA (3, 10, and 30 μM), PLK1 inhibitor BI2536 (1, 5, 10, 50, and 100 nM), and purpurogallin (PPG) (3, 10, 30, and 100 μM), the cell proliferation inhibitory effects were comparatively observed by the real-time cell proliferation analysis method for 68 hours according to Example 1-4 during.

For experiment [2], the system named is C4-2 cells. The experiment is described as above. Particulars: THA 3, 10, 30 μM, BI2536 1-100 nM, PPG 3-100 μM, 68 hours. The method, then:
as §1, §2, §3

For experiment [3], the system named is PC3 cells. As to the kind of experiment: Cell cycle analysis (PI / PHH3 flow cytometry). Particulars: 30 μM THA, 5 nM BI2536, 24 hours. The method, then:
In order to measure the cell cycle distribution, cells were plated onto a 100 mm dish (5×10^5 cells/well). The cells were fixed with 4° C. PBS, refrigerated in 70% EtOH at 4° C., and cultured for 24 hours. After the 70% EtOH was removed, the PHH3 antibody was treated with a lysing solution composed of 1% bovine serum albumin/0.5% Triton X-100/0.2 mg/ml EDTA to a final concentration of 1:50, and then stained at 37° C. for 15 minutes. Thereafter, the lysing solution was removed, and staining was performed again at 37° C. for 15 minutes using propidium iodide (PI)/Triton X-100/DNAse-free RNAse A. Next, 20,000 cells per experimental group were analyzed using the FACSCALIBUR™ (flow cytometer from BD Biosciences, CA, USA) machine.
PLK1 is a representative G2/M cell cycle regulatory […], and in order to confirm the effect of blocking the cell cycle of prostate cancer cells according to the treatment with THA, the PC3 cells cultured by the method in Example 1-2 were plated onto a 6-well plate, and then 12 hours later, the cells were treated with 30 μM THA and 5 nM BI2536 for 24 hours. Thereafter, changes in the cell distribution of each of the sub-G1, S, and G2/M phases and the proportion of PH3-positive cells (M phase marker) were observed by the method in Example 1-6.

Experiment [4] concerns PC3 cells. Briefly: Cleaved caspase-3 (CC3) expression by immunochemical analysis. Particulars: for induction of apoptosis: 30 μM THA or 5 nM BI2536, 48 hours. The procedure: (§4) Sodium dodecyl sulfate-polyacrylamide gel electrophoresis (SDS-PAGE) was performed using a gel electrophoresis apparatus (Mighty Small SE250, Hoefer Scientific Instruments, San Francisco). After a cell lysate fraction was diluted in a sample dilution buffer solution [63 mM Tris (pH 6.8), 10% glycerol, 2% SDS, 0.0013% bromophenol blue, and 5% β-mercaptoethanol], electrophoresis was performed in an electrode buffer solution (15 g of Tris, 72 g of glycerin, and 5 g of SDS were contained in a 1 L solution) using 8 to 12% gel. Proteins were electrophoretically transferred from the gel to a nitrocellulose membrane at 190 mAmps for 70 minutes in a transfer buffer solution (25 mM Tris, 192 mM glycerin, and 20% v/v methanol (pH 8.3)) using a transfer electrophoresis apparatus. After a primary antibody was reacted with the nitrocellulose membrane, a secondary antibody was reacted with horseradish peroxidase-conjugated goat anti-rabbit IgG and horseradish peroxidase-conjugated goat anti-mouse IgG for 6 hours, and color was developed using an ECL chemiluminescence system (Amersham, Gaithersberg, Mass.).
(§5) Further, the degree of apoptosis was observed by confirming the changes in expression of cleaved caspase-3 (CC3) which is an active-type caspase-3 during apoptosis, and first, the C4-2 and PC3 cells cultured by the method in Example 1-2 were plated onto a 6-well plate, and then cultured during 12 hr. And then the cells were treated with 30 μM THA or 5 nM BI2536 for 48 hours. Thereafter, the changes in expression of cleaved caspase-3 (CC3) were observed by the immunochemical analysis method in Example 1-3.

Experiment [5] deals with C4-2 cells. Described as above. To be noted: for induction of apoptosis: 30 μM THA or 5 nM BI2536, 48 hours. The procedure:
as §4, §5

The subject of experiment [6] is LnCaP cells. As to the kind of experiment: Real-time cell proliferation analysis (INCUCYTE ZOOM). Particulars: PPG 3-100 μM, 68 hours. The method, then: as §1, §2, §3
For experiment [7], the system named is PC3 cells. Briefly: Real-time apoptosis analysis (caspase-3/7 fluorescence substrate). To be noted: 30 μM THA, 48 hours. The method, then: (§6) In order to measure apoptosis, cells were plated onto a 96-well dish (5×10^3 cells/well). The INCUCYTE™ ZOOM 96-well Caspase-3/7 apoptosis assay reagent (Essen Bioscience, Ann Arbor, Mich., USA) was pretreated for 3 hours, a drug was treated, and then the fluorescence expression level was measured at 4-hour intervals using an INCUCYTE™ ZOOM Live Cell Analysis System (Essen Bioscience, Ann Arbor, Mich., USA).

Experiment [8] deals with C4-2 cells. Described as above. To be noted: 30 μM THA, 48 hours. The method, then:
as §6

`CC[C@@H]1C(=O)N(C)c2cnc(Nc3ccc(C(=O)NC4CCN(C)CC4)cc3OC)nc2N1C1CCCC1` [BI2536, reference compound]: the “cell proliferation inhibitory effect” value in experiment [1] and in experiment [2] was “selectively inhibits cell proliferation” in each case. In addition, in experiment [3], the “PHH3-positive cells (M phase marker) compared to the control” value is reported as “a significant increase”. Moreover, the cell cycle progression entry in experiment [3] is “inhibition of G2/M phase progression is induced”. Moreover, the induction of apoptosis result in experiment [4] and in experiment [5] was “apoptosis is effectively induced” in each case.
`O=c1c(O)cccc2cc(O)c(O)c(O)c12` [Purpurogallin, purpurogallin, reference compound]: the “cell proliferation inhibitory effect” value in experiment [1] was “limited cell proliferation inhibitory activity”; in experiment [2], “a cell growth inhibitory effect that appeared to be non-selective only at a concentration of 100 uM”. Moreover, the “cell proliferation inhibitory activity” value in experiment [6] is listed as “limited cell proliferation inhibitory activity”.
Turning to `CC(=O)c1c(O)cc(O)cc1O` [THA, 2,4,6-trihydroxyacetophenone], the “cell proliferation inhibitory effect” value in experiment [1] and in experiment [2] was “the same cell proliferation inhibitory effects as BI2536; also recorded: selectively inhibits cell proliferation” in each case. Also, the “PHH3-positive cells (M phase marker) compared to the control” value in experiment [3] was “a significant increase”. In addition, in experiment [3], the cell cycle progression result was “selectively blocked cell cycle progression at the G2/M phase”. For the same compound, the “apoptotic index (caspase-3/7 activity)” value in experiment [7] and in experiment [8] was “significantly increased the apoptotic index” in each case. In addition, the induction of apoptosis entry in experiment [4] and in experiment [5] was “apoptosis is effectively induced” throughout. The “expression level of cleaved caspase-3” value is listed as “increased” in experiment [4] (30 μM THA, 48 hours) and “increased” in experiment [5] (30 μM THA, 48 hours).
